These results are taken from patent publication US9304132B2, “Molecular delivery with nanowires” (President and Fellows of Harvard College, priority 2009, dated 2016).

Type in all cases: cell-based
Assay [1] concerns neural precursor cells (NPCs). The assay can be described thus: Control over growth and differentiation of neural precursor cells on Ara-C coated Si NWs (immunofluorescence). The protocol:
Si NWs were grown on a Si substrate via CVD. Substrates were first prepared by immobilizing Au nanoparticles on a precleaned Si (111) substrate using a thin polyelectrolyte layer as previously described (J. Am. Chem. Soc. 2008, 130, 6252-6258; Nano Lett. 2004, 4, 1987-1990; J. Am. Chem. Soc. 2001, 123, 9769-9779; J. Am. Chem. Soc. 2008, 130, 6252-6258). Si NWs were then synthesized by the vapor transport method using SiCl4 as the precursor for Si NW growth and H2 (10%) in argon as the carrier gas with minor modifications from that which was previously reported (Nano Lett. 2005, 5, 457-460). Briefly, a Si (111) substrate, covered with Au nanoparticles patterned into stripes by flowing a solution of 70 nm Au nanoparticles across poly-l-lysine coated silicon using PDMS microfluidic channels, was placed inside a 1″ diameter quartz tube and loaded at the center of a 12″ horizontal tube furnace (Lindberg/Blue M). After the quartz tube was evacuated and flushed repeatedly with H2 (10%) in argon gas mixture to minimize oxygen contamination, it was charged with H2 (10%) in argon gas up to 760 torr and the pump line was quickly replaced with a line that enabled venting through a bubbler filled with a saturated K2CO3 aqueous solution, meant to trap the byproduct of SiCl4 decomposition, gaseous HCl. […]

For the next assay, the system named is HeLa cells. Nature of the assay: Apoptosis assay (TUNEL / Annexin V) of HeLa cells on inhibitor-coated Si NWs after actinomycin-D and TNF-α. The conditions noted are these: Si NWs treated with 100 mM inhibitor; actinomycin-D 1 μg/mL, TNF-α 2 ng/mL; cells on uncoated NWs died. The protocol:
The silanized Si NWs (produced via CVD prior to silanization) were treated with 100 mM Ac-DEVD-CHO, an apoptosis inhibitor, in PBS at room temperature for 1 hr, and washed in PBS three times for 2 min each. HeLa cells (5×10^4 cells/mL) in DMEM media were added onto the Si NWs, and cultured in a CO2 incubator at 37° C. overnight. The cell treated Si NWs were then transferred into a fresh DMEM media containing actinomycin-D at the final concentration of 1 μg/mL, and incubated in a CO2 incubator at 37° C. for 30 min, followed by addition of TNF-α at the final concentration of 2 ng/mL. After incubation in CO2 incubator at 37° C. for indicated hours, the cells on the Si NWs were assayed for apoptosis.
Cells were analyzed for apoptosis by the Terminal Deoxynucleotide Transferase dUTP Nick End Labeling (TUNEL) assay or by the Annexin V assay. TUNEL staining was performed using the apoptosis detection kit according to the manufacturer's protocol with minor modifications. […] After blocking, streptavidin-Cy3 at 20 μg/mL and WGA Alexa Fluor 488 at 50 μg/mL were incubated with the Si NWs for 30 min at room temperature, and washed in PBC three times for 5 min each, followed by examination under a fluorescence microscope. […] After incubation for 15 min at room temperature and washes in binding buffer three times for 1 min each, cells were analyzed under a fluorescence microscope.

Assay [2] concerns Mouse embryonic stem cells (mES cells). Nature of the assay: Si NW delivery into mouse embryonic stem cells. The conditions noted are these: delivered by Si NWs. The protocol: Mouse embryonic stem cells (mES cells) were also used in this study. Delivery of molecules (including Cre Recombinase proteins) into mES cells was carried out in a manner similar to that described in Example 3.

For `Nc1ccn([C@@H]2O[C@H](CO)[C@@H](O)[C@@H]2O)c(=O)n1` [Ara-C, Cytarabine], in assay [1] (Ara-C 1 mg/mL, 5 uL coated on silanized CVD Si NWs, examined on sixth day), the “proliferation of glial-like cell plated atop Ara-C coated NWs” value was “survived but did not proliferate”. Further, in assay [1] (Ara-C coated NWs, regions without NWs showed only mitotic cell types, sixth day), the “cell type mixture in regions containing NWs” value is “neuron heavy”.
As to Ac-DEVD-CHO, in the assay on HeLa cells, the “cell survival after apoptosis induction” value is recorded as “survived”.

B1: Cre Recombinase proteins: Cre Recombinase proteins delivered by Si NWs into mES cells (protein, UniProt P06956 1-343, looked up)
Recombinase cre: MSNLLTVHQNLPALPVDATSDEVRKNLMDMFRDRQAFSEHTWKMLLSVCRSWAAWCKLNNRKWFPAEPEDVRDYLLYLQARGLAVKTIQQHLGQLNMLHRRSGLPRPSDSNAVSLVMRRIRKENVDAGERAKQALAFERTDFDQVRSLMENSDRCQDIRNLAFLGIAYNTLLRIAEIARIRVKDISRTDGGRMLIHIGRTKTLVSTAGVEKALSLGVTKLVERWISVSGVADDPNNYLFCRVRKNGVAAPSATSQLSTRALEGIFEATHRLIYGAKDDSGQRYLAWSGHSARVGAARDMARAGVSIPEIMQAGGWTNVNIVMNYIRNLDSETGAMVRLLEDGD
As to B1, in assay [2], the “EGFP expression in transgenic foxed-eGFP mES cells” value was “expressed EGFP”.
